Columns and labels:
pulmonary circulation = assay: Pulmonary haemodynamics in patients with chronic pulmonary hypertension; type: in vivo, human; details: inhaled iloprost, oral sildenafil
[1] = test system: cerebral blood flow within the posterior cerebral artery; assay: Transcranial Doppler of visually stimulated cerebral blood flow in pulmonary hypertension patients; type: in vivo, human; details: for cerebral microvascular reactivity: patients with chronic pulmonary hypertension
Excerpt: It has been shown—contrary to the skilled person's expectation, that the vasodilating effect achieved with a PDE5 inhibitor extends to the improvement of the kinetics in blood flow changes upon stimulation of the cortex by utilizing a visual stimulation paradigm. This could be shown by using the doppler-ultrasound technology which can measure the heart-beat dependent pulsatile blood flow within the basale cerebral vasculature with very high resolution. With a standard visual stimulation the Doppler is able by insonate the posterior cerebral artery to measure the activity-dependent blood-flow-regulation. [Rosengarten et al. (2001) Neurovascular coupling in terms of a control system: validation of a second-order linear system model. Ultrasound Med. Biol. 27: 631-5; Babikian et al. (2000) Transcranial Doppler ultrasonography: year 2000 update. J Neuroimaging 10: 101-115]
A pharmaceutical preparation comprising a PDE5 inhibitor can be used to treat patients with primary and secondary pulmonary hypertension. […] The hemodynamics aspects of the cerebral blood flow modulation can be described by a mathematical model (see Rosengarten et al., Headache 2003; 43: 458-463). This cited model contains a parameter T which defines the initial fast responding properties of the blood flow upon visual stimulation and three parameters (K, ζ and ω) which define the delayed adjustment of the […] blood flow. T is called the hold-back-time or rate time, K is the gain (which means change in blood flow velocity upon visual stimulation),ζ the attenuation (which represents the dampening due to vessel wall attenuation) and ω the natural frequency (represents the oscillating properties in dynamic neurovascular coupling). Patients with primary and secondary pulmonary hypertension display a pulmonary disturbance between ventilation of the alveoli and their perfusion. Such a demand-dependent inadequate perfusion has also been shown for the vasculature near the muscles. In this invention it is shown that patients with pulmonary hypertension display an increase in the rate time (meaning T is larger) and an enhanced attenuation ζ of the cerebral blood flow within the posterior cerebral artery upon visual stimulation. Thus it is shown that the mentioned disturbed micro-perfusion observed in patients with pulmonary hypertension extents to that of the brain. […] In addition the pro-longed hold-back time (rate time) in the patients is shortened by treatment with the PDE5-inhibitor sildenafil. This measurements have been performed 1 h after sildenafil intake but all responses to oral sildenafil outlasted 120-150 min.
In contrast to sildenafil iloprost treatment (2,8 μg inhaled in 4 min) worsens the impaired rate time and attenuation in patients with pulmonary hypertension (FIG. 1).
FIG. 1. Assessment of cerebral flow characteristics. Values for rate time and attenuation are presented in this graph. Medians (filled circles) and 95% confidence intervals (bars) are given for healthy controls, and patients at baseline (untreated), after iloprost inhalation, and subsequent to oral sildenafil intake. Statistical differences were assessed by ANOVA (p-values indicate significant differences between groups). Fisher's post hoc test was calculated at a significance level of p<0.05;

[2] = test system: rats with LPS-induced sepsis; assay: LPS-induced sepsis in anaesthetized rats: sensoric evoked potentials and evoked cerebral blood flow; type: in vivo, rat; details: 4½ h after inducing sepsis with LPS
Protocol: Modulation of the cerebral blood flow evoked by repetitive electrical stimulation of the sole of one foot of the rats is measured by Doppler ultrasound technology as well as the sensoric evoked neuronal potentials (SEPs) by EEG. Baseline measurements are performed before application of LPS to the rats to induce sepsis.

[3] = test system: epicardial coronary arteries; details: patients with coronary artery disease; cited from earlier work
stroke in rats = details: cited from earlier work
[4] = patients with pulmonary hypertension, iloprost 2,8 μg inhaled in 4 min

Structure (SMILES)	pulmonary arterial pressure (pulmonary circulation)	pulmonary vascular resistance (pulmonary circulation)	cerebral microvascular reactivity [1]	attenuation of cerebral blood flow upon visual stimulation [1, 4]	rate time of cerebral blood flow upon visual stimulation [1, 4]	stimulus induced cerebral blood flow ([2]; Doppler ultrasound)	amplitude of the SEP (sensoric evoked neuronal potentials) ([2]; electrical stimulation of one foot)	relaxation of epicardial coronary arteries [3]	duration of responses to oral sildenafil ([1]; patients with pulmonary hypertension, 50 mg oral)	hold-back time (rate time) T of cerebral blood flow upon visual stimulation ([1]; patients with pulmonary hypertension, sildenafil 50 mg, oral, 1 h after intake)	attenuation parameter ζ of cerebral blood flow upon visual stimulation ([1]; patients with pulmonary hypertension, sildenafil 50 mg, oral, one hour before measurement)	functional recovery after stroke (stroke in rats)	neurogenesis after stroke (stroke in rats)
CC#CCC(C)[C@H](O)/C=C/[C@@H]1[C@H]2C/C(=C/CCCC(=O)O)C[C@H]2C[C@H]1O (stereo partly shown) [iloprost]	significant reduction	significant reduction	gradually worsened	worsens	worsens								
CCCc1nn(C)c2c(=O)[nH]c(-c3cc(S(=O)(=O)N4CCN(C)CC4)ccc3OCC)nc12 [sildenafil, 5-[2-ethoxy-5-(4-methylpiperazin-1-ylsulfonyl)phenyl]-1,6-dihydro-1-methyl-3-propylpyrazolo[4,3-d]pyrimidin-7-one]	significant reduction	significant reduction	significantly improved			greatly restores	greatly restores	relax epicardial coronary arteries	120 to 150 min	shortened	significantly reduced	promotes functional recovery	induces neurogenesis
